In patent US20230272016A1, “PEPTIDES FOR IMMUNOTHERAPY” (Second Genome, Inc., priority 2020, published 2023):

System: human T cells
Experiment: Human T cell activation assay (anti-CD3 plus peptide, cytokine secretion)
Assay type: cell-based
Procedure: FIGS. 11 and 12 show 150 peptide variants of the SG-3-0020 1-29 aa N-terminal+middle region, derived from a combinatorial phage display library, were tested for activation potential of human T cells. […] Increase in cytokine secretion was concordant in 3 donors.
For example, PBMCs were obtained from individual human donors.
T-cell activation was also determined as described previously (see above and International Application No. PCT/US2020/012431). […] Separate N-, MID, and C-terminal fragments lose activity. The data support that both N- and middle region are minimally required for binding and activation to T cells.

[1] = Table 11, 150 combinatorial library variants of SEQ ID NO:1
[2] = Table 10, combinatorial library variants of SEQ ID NO:1

Question: Which mean_ES_IFN-γ [1] does the source give for “VLSTAKGKTHDHYPGGRMRPPPWHDWRAR [SEQ ID NO: 257]” here?
Answer: 0.918

Question: Which mean_ES_IFN-γ [1] does the source give for “VPSAAKGKWHDHNGSGRMRDPGWHDWRFS [SEQ ID NO: 348]” here?
Answer: −0.009349

Question: “VPSAAKGKWHDHNPGGRHRPPPWHDWRAS [SEQ ID NO: 291]” was tested. Which mean_ES_IFN-γ [1] did it give?
Answer: 0.7119

Question: “VSSAAKGKTHDHNPSGRMRPPPWHDWRFS [SEQ ID NO: 322]” was tested. Which mean_ES_IFN-γ [1] did it give?
Answer: 0.4538

Question: With “VSSAAKGKTHDHYPSGRMRPPPWHDWRGR [SEQ ID NO: 283]” as the sequence, how does the mean_ES_IFN-γ [1] read?
Answer: 0.7475

Question: “VSSGAKGKTHDHYPSGRMRPPPWHDWRFS [SEQ ID NO: 297]” was tested. Which mean_ES_IFN-γ [1] did it give?
Answer: 0.6662

Question: With “VSSGAKTKTHDHNPSGRMRDFKWHDWRGS [SEQ ID NO: 350]” as the sequence, how does the mean_ES_IFN-γ [1] read?
Answer: −0.1153

Question: How did the mean_ES_IFN-γ [1] turn out when “VTSAAKGKTHDHYPSGRMRPPPWHDWRFS [SEQ ID NO: 312]” was run?
Answer: 0.5616

Question: For “VTSAAKGKTHDHYPSGRYRPPPWHDWRGR [SEQ ID NO: 310]”, which mean_ES_IFN-γ [1] is on record?
Answer: 0.5718

Question: How did the mean_ES_IFN-γ [1] turn out when “VTSAAKGKWHDHWPSGRYRDPPWHDWRVS [SEQ ID NO: 308]” was run?
Answer: 0.588

Question: Which mean_ES_IFN-γ [1] does the source give for “VTSAAKTKWHDHNGSGRYRDPGWHDWRGS [SEQ ID NO: 347]” here?
Answer: 0.01499

Question: How did the mean_ES_IFN-γ [2] turn out when “VTSTAKGKTHDHNWSGRYRPPPWHDWRAR [SEQ ID NO: 9]” was run?
Answer: 1.28

Question: What about the mean_ES_IFN-γ [1] of the same sequence?
Answer: 1.28

Question: Which mean_ES_IFN-γ [1] does the source give for “VVSGAKGKTHDHNWGGRYRPPPWHDWRGS [SEQ ID NO: 296]” here?
Answer: 0.6729

Question: Which mean_ES_IFN-γ [1] does the source give for “VVSTAKGKTHDHYPGGRMRPPPWHDWRAR [SEQ ID NO: 251]” here?
Answer: 0.952

Question: With “VVSTAKGKTHDHYWSGRYRPPPWHDWRAR [SEQ ID NO: 259]” as the sequence, how does the mean_ES_IFN-γ [1] read?
Answer: 0.9101

Question: With “WASAAKGKTHDHYGGGRMRPPPWHDWRAR [SEQ ID NO: 323]” as the sequence, how does the mean_ES_IFN-γ [1] read?
Answer: 0.4505

Question: “WASGAKGKTHDHNPSGRWRDPGWHDWRGS [SEQ ID NO: 330]” was tested. Which mean_ES_IFN-γ [1] did it give?
Answer: 0.3705

Question: For “WASGAKGKTHDHWPGGRHRDPPWHDWRVS [SEQ ID NO: 271]”, which mean_ES_IFN-γ [1] is on record?
Answer: 0.8431

Question: Which mean_ES_IFN-γ [1] does the source give for “WASGAKGKTHDHYPSGRMRPPPWHDWRWS [SEQ ID NO: 278]” here?
Answer: 0.7784

Question: How did the mean_ES_IFN-γ [2] turn out when “WASGAKGKWHDHYGGGRYRDPGWHDWRGS [SEQ ID NO: 20]” was run?
Answer: 1.135

Question: What about the mean_ES_IFN-γ [1] of the same sequence?
Answer: 1.135

Question: With “WASGAKGKWHDHYGSGRYRPPPWHDWRGS [SEQ ID NO: 290]” as the sequence, how does the mean_ES_IFN-γ [1] read?
Answer: 0.712

Question: With “WGSAAKGKTHDHNWSGRYRPPPWHDWRVS [SEQ ID NO: 302]” as the sequence, how does the mean_ES_IFN-γ [1] read?
Answer: 0.6264

Question: What does the source list for “WGSAAKGKTHDHWPSGRHRDPPWHDWRVR [SEQ ID NO: 31]”?
Answer: mean_ES_IFN-γ [2]: 1.044; mean_ES_IFN-γ [1]: 1.044

Question: With “WGSAAKGKTHDHWPSGRMRDPPWHDWRVS [SEQ ID NO: 256]” as the sequence, how does the mean_ES_IFN-γ [1] read?
Answer: 0.9254

Question: With “WGSAAKGKTHDHWPSGRYRDPKWHDWRVS [SEQ ID NO: 21]” as the sequence, how does the mean_ES_IFN-γ [2] read?
Answer: 1.134

Question: And the mean_ES_IFN-γ [1]?
Answer: 1.134

Question: Which results are given for “WGSAAKGKTHDHYGSGRYRDPPWHDWRAR [SEQ ID NO: 32]”?
Answer: mean_ES_IFN-γ [2]: 1.038; mean_ES_IFN-γ [1]: 1.038

Question: For “WGSAAKGKWHDHYPSGRMRPPPWHDWRVR [SEQ ID NO: 275]”, which mean_ES_IFN-γ [1] is on record?
Answer: 0.8178

Question: Which mean_ES_IFN-γ [1] does the source give for “WGSGAKGKTHDHNGGGRMRPPPWHDWRAS [SEQ ID NO: 334]” here?
Answer: 0.3217

Question: With “WGSGAKGKTHDHWGSGRWRDPGWHDWRGS [SEQ ID NO: 5]” as the sequence, how does the mean_ES_IFN-γ [2] read?
Answer: 1.324

Question: And the mean_ES_IFN-γ [1]?
Answer: 1.324

Question: How did the mean_ES_IFN-γ [1] turn out when “WGSGAKTKWHDHNWSGRMRPPPWHDWRFS [SEQ ID NO: 354]” was run?
Answer: −0.315

Question: “WLSAAKAKTHDHWGSGRHRPPPWHDWRGS [SEQ ID NO: 315]” was tested. Which mean_ES_IFN-γ [1] did it give?
Answer: 0.5302

Question: For “WLSAAKGKTHDHWGSGRWRDPPWHDWRFS [SEQ ID NO: 345]”, which mean_ES_IFN-γ [1] is on record?
Answer: 0.06564

Question: For “WLSTAKGKTHDHNWSGRYRPPPWHDWRVR [SEQ ID NO: 307]”, which mean_ES_IFN-γ [1] is on record?
Answer: 0.6005

Question: With “WPSAAKGKTHDHNPSGRMRPPPWHDWRFS [SEQ ID NO: 26]” as the sequence, how does the mean_ES_IFN-γ [2] read?
Answer: 1.078

Question: And the mean_ES_IFN-γ [1]?
Answer: 1.078

Question: “WPSAAKGKTHDHYPGGRYRPPPWHDWRVR [SEQ ID NO: 295]” was tested. Which mean_ES_IFN-γ [1] did it give?
Answer: 0.6782

Question: “WPSGAKGKWHDHYPGGRMRPPPWHDWRFS [SEQ ID NO: 4]” was tested. Which mean_ES_IFN-γ [2] did it give?
Answer: 1.351

Question: And the mean_ES_IFN-γ [1]?
Answer: 1.351

Question: Which mean_ES_IFN-γ [1] does the source give for “WPSGAKTKTHDHNWGGRMRDPPWHDWRGS [SEQ ID NO: 339]” here?
Answer: 0.2814

Question: Which mean_ES_IFN-γ [1] does the source give for “WPSTAKGKTHDHYGGGRMRPPPWHDWRAR [SEQ ID NO: 318]” here?
Answer: 0.5137

Question: How did the mean_ES_IFN-γ [1] turn out when “WQSAAKTKTHDHWPGGRMRPPPWHDWRAR [SEQ ID NO: 352]” was run?
Answer: −0.2305

Question: For “WQSAAKTKTHDHWPSGRYRPPPWHDWRAS [SEQ ID NO: 294]”, which mean_ES_IFN-γ [1] is on record?
Answer: 0.6837

Question: For “WSSAAKGKTHDHNPSGRHRPPPWHDWRVS [SEQ ID NO: 304]”, which mean_ES_IFN-γ [1] is on record?
Answer: 0.6137

Question: Which mean_ES_IFN-γ [1] does the source give for “WSSAAKGKTHDHNWSGRHRPPPWHDWRFS [SEQ ID NO: 250]” here?
Answer: 0.9527

Question: With “WSSAAKGKTHDHWGGGRYRPPPWHDWRAS [SEQ ID NO: 17]” as the sequence, how does the mean_ES_IFN-γ [2] read?
Answer: 1.172

Question: What about the mean_ES_IFN-γ [1] of the same sequence?
Answer: 1.172

Question: Which mean_ES_IFN-γ [1] does the source give for “WSSAAKGKTHDHYGGGRMRPPPWHDWRAR [SEQ ID NO: 338]” here?
Answer: 0.2829

Question: How did the mean_ES_IFN-γ [1] turn out when “WSSAAKGKTHDHYGSGRMRDFGWHDWRFS [SEQ ID NO: 274]” was run?
Answer: 0.8191

Question: “WSSAAKGKTHDHYPSGRHRPPPWHDWRVS [SEQ ID NO: 253]” was tested. Which mean_ES_IFN-γ [1] did it give?
Answer: 0.9469

Question: Which mean_ES_IFN-γ [1] does the source give for “WSSAAKTKWHDHNPGGRYRPPPWHDWRFR [SEQ ID NO: 332]” here?
Answer: 0.3258

Question: With “WSSGAKTKWHDHNGSGRYRPPPWHDWRGS [SEQ ID NO: 286]” as the sequence, how does the mean_ES_IFN-γ [1] read?
Answer: 0.7241

Question: “WSSGAKTKWHDHNPGGRMRDPPWHDWRGS [SEQ ID NO: 335]” was tested. Which mean_ES_IFN-γ [1] did it give?
Answer: 0.3156

Question: What does the source list for “WSSGAKTKWHDHYGSGRHRDPKWHDWRGS [SEQ ID NO: 19]”?
Answer: mean_ES_IFN-γ [2]: 1.147; mean_ES_IFN-γ [1]: 1.147

Question: Which results are given for “WSSTAKGKTHDHWPSGRYRPPPWHDWRAR [SEQ ID NO: 35]”?
Answer: mean_ES_IFN-γ [2]: 1.009; mean_ES_IFN-γ [1]: 1.009

Question: How did the mean_ES_IFN-γ [1] turn out when “WSSTAKTKWHDHNGGGRMRPPPWHDWRAR [SEQ ID NO: 305]” was run?
Answer: 0.612

Question: With “WTSAAKGKTHDHYPSGRYRPPPWHDWRVR [SEQ ID NO: 357]” as the sequence, how does the mean_ES_IFN-γ [1] read?
Answer: −1.02

Question: With “WTSAAKGKWHDHNGSGRHRDPPWHDWRAR [SEQ ID NO: 289]” as the sequence, how does the mean_ES_IFN-γ [1] read?
Answer: 0.7151

Question: Which mean_ES_IFN-γ [1] does the source give for “WTSAAKTKWHDHYGGGRMRPPPWHDWRAR [SEQ ID NO: 272]” here?
Answer: 0.8379

Question: For “WTSGAKGKWHDHNGGGRMRDPGWHDWRFS [SEQ ID NO: 309]”, which mean_ES_IFN-γ [1] is on record?
Answer: 0.5851

Question: “WTSGAKGKWHDHYGGGRYRDPGWHDWRFS [SEQ ID NO: 280]” was tested. Which mean_ES_IFN-γ [1] did it give?
Answer: 0.7716

Question: How did the mean_ES_IFN-γ [1] turn out when “WVSAAKGKTHDHNGGGRWRDPGWHDWRFS [SEQ ID NO: 336]” was run?
Answer: 0.3032

Question: What does the source list for “WVSAAKGKTHDHWGSGRHRDPPWHDWRAR [SEQ ID NO: 30]”?
Answer: mean_ES_IFN-γ [2]: 1.052; mean_ES_IFN-γ [1]: 1.052

Question: Which results are given for “WVSAAKGKWHDHYGSGRMRDPPWHDWWGS [SEQ ID NO: 24]”?
Answer: mean_ES_IFN-γ [2]: 1.104; mean_ES_IFN-γ [1]: 1.104
